# Source: patent US20060063784A1, “Method of using substituted pyrazolo [1,5-a] pyrimidines” (priority 2004, published 2006)
# Where two headings read alike, the source gives them in different places.
# Key:
# [1] = test system: LoVo Colon cell line; assay: Cytotoxicity assay using LoVo colon cell line, SRB; format: cell-based; settings: Homo sapiens, 96 h; LoVo colon cells, 4 days incubation, SRB; read-out: Inhibition of LoVo
# Experimental: Cytotoxicity Assay Using LoVo Colon Cell Line: • 1. LoVo Colon cell lines were cultured in RPMI 1640 medium (Gibco/Invitrogen Life Sciences) supplemented with 10% fetal bovine serum (FBS, Gibco) and 50 μg/ml entamicin (Gibco). Cells were maintained at 37° C. under 7% CO2. • 2. Cells were seeded in 96-well microtiter plates (Corning/Costar) in a volume of 0.15 ml of growth medium (4000 cells/well). Plates were incubated at 37° C. overnight (18-24 hours). • 3. Serial dilutions of the test agent were added to each well. Dilutions were prepared in growth medium. One of two dose ranges was used: 5 pM to 20 μM or 170 pg/ml to 10 μg/ml. Cells were incubated with the test compounds for 4 days at 37° C. • 4. Surviving cells were processed using the SRB asay, as described above.
# 5. The drug concentration that inhibits cell proliferation by 50% relative to untreated controls (IC50) was determined from cytotoxicity curves using the LSW Toolbox graphing application.
# [2] = test system: 80S14 (p21-deficient) cells; assay: Cytotoxicity assay using isogenic cell lines: IC50 in 80S14 (p21-deficient) cells, SRB; format: cell-based, human
# Procedure, shortened: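 IC50 is the concentration halving proliferation relative to untreated controls, read from SRB absorbance (560 nm) after TCA fixation. Test agent dilutions (5 pM–50 μM or 170 pg/ml–10 μg/ml) were left on p21-deficient 80S14 cells (12,000/well, pre-incubated overnight) for 5 days at 37 °C.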
# [3] = Homo sapiens, 120 h, 80S14 p21-deficient cells, 5 days incubation, SRB, read-out: IC50 for 80SI4
# [4] = 80S14 p21-deficient cells, 5 days incubation, SRB, read-out: IC50 for 80SI4
# [5] = Homo sapiens, 120 h, 80S14 (p21-deficient) cells, 5 days, SRB, class symbols, read-out: IC50 for 80S14
# [6] = Homo sapiens, 80S14, 120 h, read-out: IC50 for 80SI4 (uM)
molecule,measurement,setting,value
"C=C(C)C(=O)Nc1cccc(-c2ccnc3c(C(=O)c4cccs4)cnn23)c1 [Example 44, 2-methyl-N-{3-[3-(thien-2-ylcarbonyl)pyrazolo[1,5-a]pyrimidin-7-yl]phenyl}acrylamide]",IC50,[1],< 0.1 µM
"O=C(CNC(=O)OCCCCCl)Nc1cccc(-c2ccnc3c(C(=O)c4cccs4)cnn23)c1 [Example 119, 4-chlorobutyl 2-oxo-2-({3-[3-(thien-2-ylcarbonyl)pyrazolo[1,5-a]pyrimidin-7-yl]phenyl}amino)ethylcarbamate]",IC50,[2]; [3],10 to 50 µM
"C/C=C/C(=O)Nc1cccc(-c2ccnc3c(C(=O)c4cccs4)cnn23)c1 [Example 149, (2E)-N-{3-[3-(thien-2-ylcarbonvl)pyrazolo[1,5-a]pyrimidin-7-yl]phenyl}but-2-enamide]",IC50,[2]; [4],1 to 10 µM
"O=C(c1cccs1)c1cnn2c(-c3cccc(NC(=O)C45CC6CC(CC(C6)C4)C5)c3)ccnc12 [Example 53, N-{3-[3-(thien-2-ylcarbonyl)pyrazolo[1,5-a]pyrimidin-7-Yl]phenyl}adamantine-1-carboxamide]",IC50,[2]; [4],< 1 µM
"COc1ccc(-c2ccnc3c(C(=O)c4cccs4)cnn23)cc1NC(=O)CC(C)C [Example 317, N-{2-Methoxy-5-[3-(2-thienylcarbonyl)pyrazolo[1,5-a]pyrimidin-7-yl]phenyl}-3-methylbutanamide]",IC50,[2]; [5],1 to 10 µM
"O=C(c1cccs1)c1cnn2c(-c3cccc(NC(=O)C4CCNCC4)c3)ccnc12 [Example 408, N-{3-[3-(Thien-2-ylcarbonyl)pyrazolo[1,5-a]pyrimidin-7-yl]phenyl}piperidine-4-carboxamide]",IC50,[2]; [5],1 to 10 µM
"CN(C(=O)O)c1cccc(-c2ccnc3c(C(=O)c4cccs4)cnn23)c1 [Example 239, Methyl [3-[3-(2-thienylcarbonyl)pyrazolo-[1,5-a]pyrimidin-7-yl]phenyl}-carbamic acid]",IC50,[2]; [5],1 to 10 µM
"O=C(Nc1cccc(-c2ccnc3c(C(=O)c4cccs4)cnn23)c1)c1ccc(F)cc1 [Example 112, 4-fluoro-N-{3-[3-(thien-2-ylcarbonyl)pyrazolo[1,5-a]pyrimidin-7-yl]phenyl}benzamide]",IC50,[2]; [3],< 1 µM
"CC(C)CC(=O)Nc1cccc(-c2ccnc3c(-c4cccs4)cnn23)c1 [Example 333, 3-Methyl-N-[3-(3-thien-2-ylpyrazolo[1,5-a]pyrimidin-7-yl)phenyl]butanamide]",IC50,[2]; [5],10 to 50 µM
"C#CCOC(=O)NCC(=O)Nc1cccc(-c2ccnc3c(C(=O)c4cccs4)cnn23)c1 [Example 123, prop-2-ynyl 2-oxo-2-({3-[3-(thien-2-ylcarbonyl)pyrazolo[1,5-a]pyrimidin-7-yl]phenyl}amino)ethylcarbamate]",IC50,[2]; [3],1 to 10 µM
"O=C(CNC(=O)C1CCC1)Nc1cccc(-c2ccnc3c(C(=O)c4cccs4)cnn23)c1 [Example 127, N-[2-oxo-2-({3-[3-(thien-2-ylcarbonyl)pyrazolo[1,5-a]pyrimidin-7-yl]phenyl}amino)ethyl]cyclobutanecarboxamide]",IC50,[2]; [3],10 to 50 µM
"O=C(c1ccccn1)c1cnn2c(-c3cccc(NC(=O)C4CC4)c3)ccnc12 [Example 337, N-{3-[3-(Pyridin-2-ylcarbonyl)pyrazolo[1,5-a]pyrimidin-7-yl]phenyl}cyclopropanecarboxamide]",IC50,[2]; [5],10 to 50 µM
"Cc1cnc2c(C(=O)c3cccs3)cnn2c1-c1cccc(NC(=O)NC(C)C)c1 [Example 222, N-isopropyl-N′-{3-[6-methyl-3-(thien-2-ylcarbonyl)pyrazolo[1,5-a]pyrimidin-7-yl]phenyl}urea]",IC50,[2]; [3],10 to 50 µM
"O=C(Nc1cccc(-c2ccnc3c(C(=O)c4cccs4)cnn23)c1)c1cccc(Br)c1 [Example 286, 3-Bromo-N-{3-[3-(2-thienylcarbonyl)pyrazolo[1,5-a]pyrimidin-7-yl]phenyl}benzamide]",IC50,[2]; [5],< 1 µM
N[C@H](C(=O)Nc1cccc(-c2ccnc3c(C(=O)c4cccs4)cnn23)c1)C1CCCCC1 [Example 86],IC50,[2]; [4],1 to 10 µM
"3.5-Dinitro-N-{3-[3-(2-thienylcarbonyl)pyrazolo[1,5-a]pyrimidin-7-yl]phenyl}benzamide [Example 288]",IC50,"[2]; 80S14 (p21-deficient) cells, 5 days, SRB, class symbols, read-out: IC50 for 80S14",10 to 50 µM
"O=C(c1cccs1)c1cnn2c(-c3cccc(-c4ccc(CN5CCOCC5)cc4)c3)ccnc12 [Example 459, {7-[4′-(Morpholin-4-ylmethyl)-1,1′-biphenyl-3-yl]pyrazolo[1,5-a]pyrimidin-3-yl}(thien-2-yl)methanone]",IC50,[2]; [5],< 1 µM
"CCCC(OC(=O)Nc1cccc(-c2ccnc3c(C(=O)c4cccs4)cnn23)c1)C(C)C (stereo not shown) [Example 192, 1-isopropylbutyl 3-[3-(thien-2-ylcarbonyl)pyrazolo[1,5-a]pyrimidin-7-yl]phenylcarbamate]",IC50,[2]; [3],1 to 10 µM
"O=C(COc1ccccc1)Nc1cccc(-c2ccnc3c(C(=O)c4cccs4)cnn23)c1 [Example 111, 2-phenoxy-N-{3-[3-(thien-2-ylcarbonyl)pyrazolo[1,5-a]pyrimidin-7-yl]phenyl}acetamide]",IC50,[2]; [3],1 to 10 µM
"O=C(Nc1cccc(-c2ccnc3c(C(=O)c4cccs4)cnn23)c1)c1cccc(F)c1 [Example 98, 3-fluoro-N-{3-[3-(thien-2-ylcarbonyl)pyrazolo[1,5-a]pyrimidin-7-yl]phenyl}benzamide]",IC50,[2]; [3],< 1 µM
"CC(C)COC(=O)Nc1cccc(-c2ccnc3c(C(=O)c4cccs4)cnn23)c1 [Example 16, isobutyl 3-[3-(thien-2-ylcarbonyl)pyrazolo[1,5-a]pyrimidin-7-yl]phenylcarbamate]",IC50,[2]; [6],< 1 µM
"O=C(Nc1cccc(-c2ccnc3c(C(=O)c4cccs4)cnn23)c1)OCc1ccccc1 [Example 24, benzyl 3-[3-(thien-2-ylcarbonyl)pyrazolo[1,5-a]pyrimidin-7-yl]phenylcarbamate]",IC50,[2]; [3],< 1 µM
"O=C(Nc1cccc(-c2ccnc3c(C(=O)c4cccs4)cnn23)c1)c1ccc(Br)cc1 [Example 90, 4-bromo-N-{3-[3-(thien-2-ylcarbonyl)pyrazolo[1,5-a]pyrimidin-7-yl]phenyl}benzamide]",IC50,[2]; [3],1 to 10 µM
"O=C(c1ccccc1)c1cnn2c(-c3cccc(NC(=O)C4CC4)c3)ccnc12 [Example 230, N-[3-(3-Benzoylpyrazolo-[1,5-a]pyrimidin-7-yl)phenyl]-cyclopropanecarboxamide]",IC50,[2]; [5],1 to 10 µM
"CC(CCl)(CCl)C(=O)Nc1cccc(-c2ccnc3c(C(=O)c4cccs4)cnn23)c1 [Example 141, 3-chloro-2-(chloromethyl)-2-methyl-N-{3-[3-(thien-2-ylcarbonyl)pyrazolo[1,5-a]pyrimidin7-yl]phenyl}propanamide]",IC50,[2]; [3],< 1 µM
"CCCCC(CC)C(=O)Nc1cccc(-c2ccnc3c(C(=O)c4cccs4)cnn23)c1 (stereo not shown) [Example 147, 2-ethyl-N-{3-[3-(thien-2-ylcarbonyl)pyrazolo[1,5-a]pyrimidin-7-yl}phenyl}hexanamide]",IC50,[2]; [3],1 to 10 µM
"O=C(Cc1ccccc1)Nc1cccc(-c2ccnc3c(C(=O)c4cccs4)cnn23)c1 [Example 105, 2-phenyl-N-{3-[3-(thien-2-ylcarbonyl)pyrazolo[1,5-a]pyrimidin-7-yl]phenyl}acetamide]",IC50,[2]; [3],< 1 µM
"Cc1nn2c(-c3cccc(NC(=O)CC(C)C)c3)ccnc2c1C(=O)c1cccs1 [Example 307, 3-Methyl-N-{3-[2-methyl-3-(2-thienylcarbonyl)pyrazolo[1,5-a]pyrimidin-7-yl]phenyl}butanamide]",IC50,[2]; [5],10 to 50 µM
"C=CCCOC(=O)Nc1cccc(-c2ccnc3c(C(=O)c4cccs4)cnn23)c1 [Example 20, 3-butenyl 3-[3-(2-thienylcarbonyl)pyrazolo[1,5-a]pyrimidin-7-yl]phenylcarbamate]",IC50,[2]; [6],< 1 µM
O=C(c1cccs1)c1cnn2c(-c3cccc(NC(=O)[C@@H]4CCCN4)c3)ccnc12 [Example 85],IC50,[2]; [4],1 to 10 µM
"O=C(c1ccccc1)c1cnn2c(-c3cccc(N4CCCCC4=O)c3)ccnc12 [Example 227, 1-[3-(3-Benzoylpyrazolo[1,5-a]-pyrimidin-7-yl)phenyl]-2-piperidinone]",IC50,[2]; [5],10 to 50 µM
"O=C(CNC(=O)OCCCl)Nc1cccc(-c2ccnc3c(C(=O)c4cccs4)cnn23)c1 [Example 120, 2-chloroethyl-2-oxo-2-({3-[3-(thien-2-ylcarbonyl)pyrazolo[1,5-a]pyrimidin-7-yl]phenyl}amino)ethylcarbamate]",IC50,[2]; [3],1 to 10 µM
"CCN(CC)CCC(=O)Nc1cccc(-c2ccnc3c(C(=O)c4cccs4)cnn23)c1 [Example 65, N-3,N-3-diethyl-N-1-{3-[3-(thien-2-ylcarbonyl)pyrazolo[1,5-a]pyrimidin-7-yl]phenyl}-beta-alaninamide]",IC50,[2]; [4],10 to 50 µM
"CC(C)(C)C(=O)Nc1cccc(-c2ccnc3c(C(=O)c4ccco4)cnn23)c1 [Example 243, N-[3-[3-(2-Furanylcarbonyl)pyrazolo-[1,5-a]pyrimidin-7-yl]phenyl}-2,2-dimethyl-propanamide]",IC50,"[2]; Homo sapiens, 80S14, 120 h, read-out: IC50 for 80S14 (uM)",1 to 10 µM
